Reference: BindingDB's records for doi:10.1016/j.bioorg.2016.08.005 (Comsats Institute of Information Technology, 2016)

Columns and labels:
[1] = molecular target: Aldo-keto reductase family 1 member A1 (Bos taurus, UniProt Q3ZCJ2); test: ALR1 in vitro Inhibition Assay; details: pH 6.2
Experimental: The assay results were obtained at 340 nm and ALR1 inhibitory activity was measured with the absorbance change at this respective wavelength. Each well contains 200 µL of assay mixture containing potassium phosphate buffer 100 mM at pH 6.2 with test sample 20 µL of 10 mM, 70 µL enzyme preparation and 40 µL of10 mM sodium D-glucoronic acid as a substrate. This mixture was incubated at 37 °C for 5 min and 50 µL of 0.1 mM NADPH as a cofactor was added and the read was obtained at 340 nm. The assay mixture was incubated again at 37 °C for 10 min and the read was taken at the respective UV range in ELIZA plate reader. As positive and negative control, 10 mM valproic acid (20 µL) and buffer solution (20 µL) were used [Biol. Chem., 240:877-882].

[2] = molecular target: Aldo-keto reductase family 1 member B1 [K65Q] (Bos taurus, UniProt P16116, K65Q); test: ALR2 in vitro Inhibition Assay
Experimental: The activity of ALR2 enzyme was determined at 340 nm in UV spectrophotometer that depends upon the measurement of NADPH consumption. Each well of the 96-well plate contains 200 µL of assay mixture consisting of potassium phosphate buffer 100 mMat 6.2 pH, 20 µL of 10 mM test sample, 70 µL of enzyme preparation and substrate D,L-glyceraldehyde (40 µL), all mixture was incubated at 37 °C for 5 min and then 0.1 mM NADPH (50 µL) was added as a cofactor in the enzyme reaction and read was measured at 340 nm and followed by incubation at 37 °C for 10 min and thenabsorbance was measured in Eliza plate reader at respective wavelength. Negative and positive control used were 10 m M buffer (20 µL) and 10 mM sulindac (20 µL) [Med. Chem. Commun., 5:1371-1380].

Sequence of Aldo-keto reductase family 1 member A1 (Q3ZCJ2 whole entry): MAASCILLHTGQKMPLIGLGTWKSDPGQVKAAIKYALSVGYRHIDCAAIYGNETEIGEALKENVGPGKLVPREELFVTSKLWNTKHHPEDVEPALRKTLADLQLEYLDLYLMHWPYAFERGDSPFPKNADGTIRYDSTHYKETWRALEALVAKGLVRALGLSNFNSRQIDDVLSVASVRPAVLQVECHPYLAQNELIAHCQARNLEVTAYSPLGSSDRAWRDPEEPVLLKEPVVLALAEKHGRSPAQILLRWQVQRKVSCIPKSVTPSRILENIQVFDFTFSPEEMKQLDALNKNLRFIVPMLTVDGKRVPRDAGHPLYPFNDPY

Row | IC50 [1] [µM] | IC50 [2] [µM] | Compound
1 | 17.1 | – | O=c1oc2ccccc2cc1-c1csc(NN=C(c2ccccc2)c2ccccc2)n1 [3-(2-(2-(diphenylmethylene)hydrazinyl)thiazol-4-yl)-2Hchromen-2-one (6n)]
2 | – | 0.31 | O=c1oc2ccccc2cc1-c1nn(CNc2ccccc2Cl)c(=S)o1 [3-(4-((2-Chlorophenylamino)methyl)-5-thioxo-4,5-dihydro-1,3,4-oxadiazol-2-yl)-2H-chromen-2-one (11d)]
3 | 15.2 | – | O=c1oc2ccccc2cc1-c1nn(CNc2cccc(Cl)c2)c(=S)o1 [3-(4-((3-Chlorophenylamino)methyl)-5-thioxo-4,5-dihydro-1,3,4-oxadiazol-2-yl)-2H-chromen-2-one (11e)]
4 | 5.68 | 3.39 | O=c1oc2ccccc2cc1-c1nn(CNc2ccc(Cl)cc2)c(=S)o1 [3-(4-((4-Chlorophenylamino)methyl)-5-thioxo-4,5-dihydro-1,3,4-oxadiazol-2-yl)-2H-chromen-2-one (11f)]
5 | 3.36 | 57.5 | CCCCNCn1nc(-c2cc3ccccc3oc2=O)oc1=S [3-(4-((Butylamino)methyl)-5-thioxo-4,5-dihydro-1,3,4-oxadiazol-2-yl)-2H-chromen-2-one (11b)]
6 | – | 3.39 | O=c1oc2ccccc2cc1-c1nn(CN(c2ccccc2)c2ccccc2)c(=S)o1 [3-(4-((Diphenylamino)methyl)-5-thioxo-4,5-dihydro-1,3,4-oxadiazol-2-yl)-2H-chromen-2-one (11h)]
7 | 7.11 | – | Cc1ccc(NCn2nc(-c3cc4ccccc4oc3=O)oc2=S)cc1 [3-(4-((p-Toluidino)methyl)-5-thioxo-4,5-dihydro-1,3,4-oxadiazol-2-yl)-2H-chromen-2-one (11c)]
8 | – | 0.34 | O=c1oc2ccccc2cc1-c1nn(CN2CCOCC2)c(=S)o1 [3-(4-(Morpholinomethyl)-5-thioxo-4,5-dihydro-1,3,4-oxadiazol-2-yl)-2H-chromen-2-one (11g)]
9 | 34.7 | 0.16 | C/C(=N\Nc1nc(-c2cc3ccccc3oc2=O)cs1)c1ccccc1Br [(E)-3-(2-(2-(1-(2-bromophenyl)ethylidene)hydrazinyl)thiazol-4-yl)-2H-chromen-2-one (6c)]
10 | 57.4 | – | C/C(=N\Nc1nc(-c2cc3ccccc3oc2=O)cs1)c1ccccc1F [(E)-3-(2-(2-(1-(2-fluorophenyl)ethylidene)hydrazinyl)thiazol-4-yl)-2H-chromen-2-one (6f)]
11 | 5.47 | – | COc1ccc(/C(C)=N/Nc2nc(-c3cc4ccccc4oc3=O)cs2)c(O)c1 [(E)-3-(2-(2-(1-(2-hydroxy-4-methoxyphenyl)ethylidene)hydrazinyl)thiazol-4-yl)-2H-chromen-2-one (6j)]
12 | 93.6 | 6.35 | C/C(=N\Nc1nc(-c2cc3ccccc3oc2=O)cs1)c1cccc(Br)c1 [(E)-3-(2-(2-(1-(3-bromophenyl)ethylidene)hydrazinyl)thiazol-4-yl)-2H-chromen-2-one (6d)]
13 | 1.08 | – | COc1ccc(/C(C)=N/Nc2nc(-c3cc4ccccc4oc3=O)cs2)cc1F [(E)-3-(2-(2-(1-(3-fluoro-4-methoxyphenyl)ethylidene)hydrazinyl)thiazol-4-yl)-2H-chromen-2-one (6i)]
14 | 14.4 | – | COc1ccc(/C(C)=N/Nc2nc(-c3cc4ccccc4oc3=O)cs2)cc1I [(E)-3-(2-(2-(1-(3-iodo-4-methoxyphenyl)ethylidene)hydrazinyl)thiazol-4-yl)-2H-chromen-2-one (6l)]
15 | 1.71 | 0.11 | C/C(=N\Nc1nc(-c2cc3ccccc3oc2=O)cs1)c1ccc(Br)cc1 [(E)-3-(2-(2-(1-(4-bromophenyl)ethylidene)hydrazinyl)thiazol-4-yl)-2H-chromen-2-one (6e)]
16 | 1.41 | 1.76 | COc1cc(/C(C)=N/Nc2nc(-c3cc4ccccc4oc3=O)cs2)ccc1O [(E)-3-(2-(2-(1-(4-hydroxy-3-methoxyphenyl)ethylidene)hydrazinyl)thiazol-4-yl)-2H-chromen-2-one (6k)]
17 | 7.62 | – | COc1ccc(/C(C)=N/Nc2nc(-c3cc4ccccc4oc3=O)cs2)cc1 [(E)-3-(2-(2-(1-(4-methoxyphenyl)ethylidene)hydrazinyl)thiazol-4-yl)-2H-chromen-2-one (6h)]
18 | 2.94 | 0.12 | C/C(=N\Nc1nc(-c2cc3ccccc3oc2=O)cs1)c1ccccc1 [Coumarin-thiazole series I, 6a]
19 | 8.91 | – | C/C(=N\Nc1nc(-c2cc3ccccc3oc2=O)cs1)c1cc2ccccc2oc1=O [Coumarin-thiazole series I, 6o]
20 | – | 0.293 | CC1=C(CC(=O)O)c2cc(F)ccc2/C1=C\c1ccc([S@@+](C)[O-])cc1 [cis-5-Fluoro-2-methyl-1-((p-methylsulfinyl)benzylidene)indene-3-acetic acid]
